Values of other authors in Sander's compilation of Henry's law constants (doi:10.1063/1.1562632).
“And” between values parts separate entries of the source, which are not always exact repeats. Equal entries are not always repeated.

Assay: Henry solubility constant Hcp at 298.15 K (mol/(m3 Pa))
Conditions: reference: Li et al. (2003); cited value

SMILES | Henry solubility constant Hcp
Clc1cc(-c2cc(Cl)c(Cl)c(Cl)c2Cl)c(Cl)c(Cl)c1Cl [2,2',3,3',4,4',5,5'-octachlorobiphenyl] | 0.15 and 0.23
Clc1ccc(-c2ccc(Cl)cc2)cc1 [4,4'-dichlorobiphenyl] | 0.07 and 0.075
Clc1ccc(Cl)c(-c2cc(Cl)c(Cl)cc2Cl)c1 [2,2',4,5,5'-pentachlorobiphenyl] | 0.032 and 0.041
Clc1cc(Cl)c(-c2ccc(Cl)c(Cl)c2Cl)cc1Cl [2,2',3,4,4',5'-hexachlorobiphenyl] | 0.025 and 0.033
Clc1ccc(-c2ccc(Cl)c(Cl)c2Cl)cc1Cl [2,3,3',4,4'-pentachlorobiphenyl] | 0.03 and 0.072
Clc1cc(-c2ccccc2)c(Cl)c(Cl)c1Cl [2,3,4,5-tetrachlorobiphenyl] | 0.049 and 0.05
Clc1ccc(-c2cc(Cl)c(Cl)cc2Cl)cc1Cl [2,3',4,4',5-pentachlorobiphenyl] | 0.031 and 0.069
Clc1cc(Cl)c(-c2c(Cl)cc(Cl)cc2Cl)c(Cl)c1 [2,2',4,4',6,6'-hexachlorobiphenyl] | 0.013 and 0.011
Clc1ccc(Cl)c(-c2cc(Cl)ccc2Cl)c1 [2,2',5,5'-tetrachlorobiphenyl] | 0.035 and 0.04
Clc1ccc(-c2ccccc2Cl)cc1 [2,4'-dichlorobiphenyl] | 0.038 and 0.044
Clc1cc(Cl)c(-c2cc(Cl)c(Cl)cc2Cl)cc1Cl [2,2',4,4',5,5'-hexachlorobiphenyl] | 0.04 and 0.051
Clc1ccc(-c2cc(Cl)ccc2Cl)cc1 [2,4',5-trichlorobiphenyl] | 0.027 and 0.029
